How the values were obtained:
Assay type in all cases: in vivo
[1] = system: bentgrass (Agrostis palustris) variety Crenshaw; test: Percentage injury to the turfgrass, Example 1; conditions: TXP 96 g ai/ha, methyl jasmonate 0 g ai/ha
Protocol: (§1) Compositions comprising methyl jasmonate (as a SL formulation, purchased from Fischer), trinexapac-ethyl (in the form of Primo MAXX®), or both (as a tank mix) were tested at various rates for effects on bentgrass (Agrostis palustris) variety Crenshaw. All treatments included the adjuvant NIS, at 0.25% v/v.

[2] = system: bentgrass (Agrostis palustris) variety A1; test: Colour (greenness) assessment, Example 2; conditions: jasmonic acid 0 g ai/ha
Protocol: Compositions comprising methyl jasmonate (purchased from Aldrich), trinexapac-ethyl (in the form of Primo MAXX® 120EC), or both (as a tank mix) were tested at various rates for effects on bentgrass (Agrostis palustris) variety A1. Assessments of greenness were made at 5 and 12 days after the second treatment.

[3] = system: bentgrass (Agrostis palustris) variety Crenshaw; test: Turfgrass colour assessment, Example 1; conditions: 43 DA-A (17 DA-B)
Protocol: as §1, with “v/v. Assessments of percentage injury to the turfgrass, and turfgrass quality (on a standard scale of 1 to 9) were made at various time intervals after treatment.” for “v/v.”

[4] = system: bentgrass (Agrostis palustris) variety Crenshaw; test: Turfgrass quality assessment, Example 1
Protocol: as §1, with “v/v. Assessments of percentage injury to the turfgrass, and turfgrass quality (on a standard scale of 1 to 9) were made at various time intervals after treatment.” for “v/v.”

[5] = system: bentgrass (Agrostis palustris) variety A1; test: Colour (greenness) assessment, Example 2; conditions: TXP 0 g ai/ha

Question: How did the “Injury (%)” value ([1]; 8 DA-A) turn out when `CCOC(=O)C1CC(=O)C(=C(O)C2CC2)C(=O)C1` (stereo not shown) [Trinexapac-ethyl only, trinexapac-ethyl] was run?
Answer: 5%

Question: What about the “Injury (%)” value ([1]; 14 DA-A) of the same molecule?
Answer: 7%

Question: And the “Greenness (scale of 1-10 by comparison with the untreated control)” value (“Greenness” below) ([2]; TXP 57 g ai/ha, 5 DA-B)?
Answer: 0.0

Question: And the “Greenness” value ([2]; TXP 57 g ai/ha, 12 DA-B)?
Answer: 0.0

Question: And the “Greenness” value ([2]; TXP 96 g ai/ha, 5 DA-B)?
Answer: 3.5

Question: And the “Greenness” value ([2]; TXP 96 g ai/ha, 12 DA-B)?
Answer: 3.5

Question: What about the “Colour (scale: 1 poor to 9 excellent)” value ([3]; TXP 96 g ai/ha, methyl jasmonate 0 g ai/ha) of the same molecule?
Answer: 7.3

Question: What about the “Quality (scale: 1 poor to 9 excellent)” value ([4]; TXP 96 g ai/ha, methyl jasmonate 0 g ai/ha, 33 DA-A (7 DA-B)) of the same molecule?
Answer: 7.2

Question: And the “Quality (scale: 1 poor to 9 excellent)” value ([4]; TXP 96 g ai/ha, methyl jasmonate 0 g ai/ha, 43 DA-A (17 DA-B))?
Answer: 7.4

Question: And the “Quality (scale: 1 poor to 9 excellent)” value ([4]; TXP 96 g ai/ha, methyl jasmonate 0 g ai/ha, 56 DA-A (30 DA-B))?
Answer: 7.0

Question: `CC/C=C\C[C@H]1C(=O)CC[C@@H]1CC(=O)OC` [Methyl jasmonate only, methyl (1R,2R)-3-Oxo-2-(2Z)-2-pentenyl-cyclopentaneacetate] was tested. Which “Greenness” value ([5]; jasmonic acid 168 g ai/ha, 5 DA-B) did it give?
Answer: 0.0

Question: And the “Greenness” value ([5]; jasmonic acid 168 g ai/ha, 12 DA-B)?
Answer: 0.5

Question: What about the “Greenness” value ([5]; jasmonic acid 336 g ai/ha, 5 DA-B) of the same molecule?
Answer: 0.0

Question: What about the “Greenness” value ([5]; jasmonic acid 336 g ai/ha, 12 DA-B) of the same molecule?
Answer: 0.0

Question: And the “Greenness” value ([5]; jasmonic acid 672 g ai/ha, 5 DA-B)?
Answer: 0.0

Question: And the “Greenness” value ([5]; jasmonic acid 672 g ai/ha, 12 DA-B)?
Answer: 0.0

Question: What about the “Colour (scale: 1 poor to 9 excellent)” value ([3]; TXP 0 g ai/ha, methyl jasmonate 168 g ai/ha) of the same molecule?
Answer: 7.2

Question: And the “Colour (scale: 1 poor to 9 excellent)” value ([3]; TXP 0 g ai/ha, methyl jasmonate 336 g ai/ha)?
Answer: 7.2

Question: What about the “Colour (scale: 1 poor to 9 excellent)” value ([3]; TXP 0 g ai/ha, methyl jasmonate 670 g ai/ha) of the same molecule?
Answer: 7.0

Question: What about the “Quality (scale: 1 poor to 9 excellent)” value ([4]; TXP 0 g ai/ha, methyl jasmonate 168 g ai/ha, 33 DA-A (7 DA-B)) of the same molecule?
Answer: 7.1

Question: What about the “Quality (scale: 1 poor to 9 excellent)” value ([4]; TXP 0 g ai/ha, methyl jasmonate 168 g ai/ha, 43 DA-A (17 DA-B)) of the same molecule?
Answer: 7.2

Question: And the “Quality (scale: 1 poor to 9 excellent)” value ([4]; TXP 0 g ai/ha, methyl jasmonate 168 g ai/ha, 56 DA-A (30 DA-B))?
Answer: 7.0

Question: What about the “Quality (scale: 1 poor to 9 excellent)” value ([4]; TXP 0 g ai/ha, methyl jasmonate 336 g ai/ha, 33 DA-A (7 DA-B)) of the same molecule?
Answer: 7.0

Question: And the “Quality (scale: 1 poor to 9 excellent)” value ([4]; TXP 0 g ai/ha, methyl jasmonate 336 g ai/ha, 43 DA-A (17 DA-B))?
Answer: 7.2

Question: And the “Quality (scale: 1 poor to 9 excellent)” value ([4]; TXP 0 g ai/ha, methyl jasmonate 336 g ai/ha, 56 DA-A (30 DA-B))?
Answer: 7.0

Question: What about the “Quality (scale: 1 poor to 9 excellent)” value ([4]; TXP 0 g ai/ha, methyl jasmonate 670 g ai/ha, 33 DA-A (7 DA-B)) of the same molecule?
Answer: 6.9

Question: And the “Quality (scale: 1 poor to 9 excellent)” value ([4]; TXP 0 g ai/ha, methyl jasmonate 670 g ai/ha, 43 DA-A (17 DA-B))?
Answer: 7.0

Question: What about the “Quality (scale: 1 poor to 9 excellent)” value ([4]; TXP 0 g ai/ha, methyl jasmonate 670 g ai/ha, 56 DA-A (30 DA-B)) of the same molecule?
Answer: 7.0
